Assay results published in PubChem BioAssay (NCI).
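At the GI50, growth is halved. TGI denotes the concentration required for complete inhibition of growth.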

How the values were obtained:
Assay in all cases: NCI tumour cell line growth inhibition, 384-well format
[1] = tested on: UO-31 renal
[2] = tested on: MDA-MB-468 breast
[3] = tested on: CAKI-1 renal
[4] = tested on: MDA-MB-231 breast
[5] = tested on: NCI-H460 NSCLC
[6] = tested on: IGROV1 ovarian
[7] = tested on: A498 renal
[8] = tested on: ACHN renal
[9] = tested on: HCT-15 colon
[10] = tested on: OVCAR-3 ovarian
[11] = tested on: 786-0 renal
[12] = tested on: DU-145 prostate
[13] = tested on: HT29 colon
[14] = tested on: MOLT-4 leukemia
[15] = tested on: SNB-19 CNS
[16] = tested on: SK-MEL-5 melanoma
[17] = tested on: OVCAR-8 ovarian
[18] = tested on: HCT-116 colon
[19] = tested on: SNB-75 CNS
[20] = tested on: HCC-2998 colon
[21] = tested on: A549 NSCLC
[22] = tested on: TK-10 renal
[23] = tested on: SW-620 colon
[24] = tested on: CCRF-CEM leukemia
[25] = tested on: HOP-92 NSCLC
[26] = tested on: NCI/ADR-RES ovarian
[27] = tested on: NCI-H226 lung
[28] = tested on: SF-295 CNS
[29] = tested on: NCI-H322M lung
[30] = tested on: COLO 205 colon
[31] = tested on: KM12 colon
[32] = tested on: HL-60(TB) leukemia
[33] = tested on: HS 578T breast
[34] = tested on: UACC-257 melanoma
[35] = tested on: HOP-62 NSCLC
[36] = tested on: NCI-H23 lung
[37] = tested on: SN12C renal
[38] = tested on: OVCAR-4 ovarian
[39] = tested on: M14 melanoma
[40] = tested on: U251 glioblastoma
[41] = tested on: MALME-3M melanoma
[42] = tested on: SF-539 CNS
[43] = tested on: RPMI-8226 leukemia
[44] = tested on: MCF7 breast
[45] = tested on: PC-3 prostate
[46] = tested on: SF-268 CNS
[47] = tested on: NCI-H522 lung
[48] = tested on: UACC-62 melanoma
[49] = tested on: RXF 393 renal
[50] = tested on: K-562 leukemia
[51] = tested on: BT-549 breast
[52] = tested on: SK-OV-3 ovarian
[53] = tested on: EKVX NSCLC
[54] = tested on: SK-MEL-28 melanoma
[55] = tested on: T-47D breast
[56] = tested on: MDA-MB-435 melanoma
[57] = tested on: LOX IMVI melanoma

`NC(=O)/C(=C/n1cnc(-c2cc(C(F)(F)F)cc(C(F)(F)F)c2)n1)c1cncnc1` was tested, and the GI50 [1] was 0.269 µM, the TGI [1] was 1.57 µM and the GI50 [2] was 0.073 µM. For the same compound, the TGI [2] was 0.247 µM, the GI50 [3] was 0.022 µM and the TGI [3] was 1.34 µM. It also gave a GI50 [4] of 0.0295 µM, a TGI [4] of 0.253 µM and a GI50 [5] of 0.0296 µM. For the same compound, the TGI [5] was 0.131 µM, the GI50 [6] was 0.296 µM and the TGI [6] was 2.13 µM. For the same compound, the GI50 [7] was 0.042 µM, the TGI [7] was 0.232 µM and the GI50 [8] was 0.329 µM. It also gave a TGI [8] of 2.67 µM, a GI50 [9] of 0.0927 µM and a TGI [9] of 1.18 µM. For the same compound, the GI50 [10] was 0.028 µM, the TGI [10] was 0.171 µM and the GI50 [11] was 0.0504 µM. It also gave a TGI [11] of 1.22 µM, a GI50 [12] of 0.235 µM and a TGI [12] of 3.94 µM. For the same compound, the GI50 [13] was 0.0656 µM, the TGI [13] was 0.943 µM and the GI50 [14] was 0.0145 µM. For the same compound, the TGI [14] was 0.0282 µM, the GI50 [15] was 0.188 µM and the TGI [15] was 1.88 µM. It also gave a GI50 [16] of 0.192 µM, a TGI [16] of 1.19 µM and a GI50 [17] of 0.0378 µM. The TGI [17] was 1.05 µM, the GI50 [18] was 0.0401 µM and the TGI [18] was 0.232 µM. For the same compound, the GI50 [19] was 0.0154 µM, the TGI [19] was 0.0419 µM and the GI50 [20] was 0.0605 µM. It also gave a TGI [20] of 0.287 µM, a GI50 [21] of 0.196 µM and a TGI [21] of 1.64 µM. It also gave a GI50 [22] of 0.0475 µM, a TGI [22] of 1.35 µM and a GI50 [23] of 0.041 µM. For the same compound, the TGI [23] was 1.41 µM, the GI50 [24] was 0.0474 µM and the TGI [24] was 0.188 µM. For the same compound, the GI50 [25] was 0.438 µM, the TGI [25] was 2.06 µM and the GI50 [26] was 0.222 µM. For the same compound, the TGI [26] was 1.68 µM, the GI50 [27] was 0.0316 µM and the TGI [27] was 0.4 µM. It also gave a GI50 [28] of 0.327 µM, a TGI [28] of 2.69 µM and a GI50 [29] of 0.297 µM. It also gave a TGI [29] of 2.9 µM, a GI50 [30] of 0.0441 µM and a TGI [30] of 1.74 µM. The GI50 [31] was 0.191 µM, the TGI [31] was 1.93 µM and the GI50 [32] was 0.0153 µM. For the same compound, the TGI [32] was 0.131 µM, the GI50 [33] was 0.033 µM and the TGI [33] was 0.244 µM. For the same compound, the GI50 [34] was 0.591 µM, the TGI [34] was 2.12 µM and the GI50 [35] was 0.229 µM. The TGI [35] was 0.995 µM, the GI50 [36] was 0.0713 µM and the TGI [36] was 1.12 µM. The GI50 [37] was 0.598 µM, the TGI [37] was 2.26 µM and the GI50 [38] was 0.249 µM. For the same compound, the TGI [38] was 0.78 µM, the GI50 [39] was 0.146 µM and the TGI [39] was 0.485 µM. It also gave a GI50 [40] of 0.12 µM, a TGI [40] of 0.785 µM and a GI50 [41] of 0.0322 µM. It also gave a TGI [41] of 0.483 µM, a GI50 [42] of 0.0275 µM and a TGI [42] of 0.084 µM. The TGI [43] was 0.0241 µM, the GI50 [44] was 0.0478 µM and the TGI [44] was 10.9 µM. The GI50 [45] was 0.0261 µM, the TGI [45] was 0.11 µM and the GI50 [46] was 0.0267 µM. For the same compound, the TGI [46] was 0.0953 µM, the GI50 [47] was 0.0249 µM and the TGI [47] was 0.184 µM. It also gave a GI50 [48] of 0.0572 µM, a TGI [48] of 0.241 µM and a GI50 [49] of 0.0244 µM. The TGI [49] was 0.116 µM, the GI50 [50] was 0.0372 µM and the TGI [50] was 1.03 µM. The GI50 [51] was 0.0121 µM, the TGI [51] was 0.0455 µM and the GI50 [52] was 0.0922 µM. The TGI [52] was 8.97 µM, the GI50 [53] was 0.591 µM and the TGI [53] was 4.14 µM. It also gave a GI50 [54] of 0.106 µM, a TGI [54] of 0.372 µM and a GI50 [55] of 0.192 µM. The TGI [55] was 1.58 µM, the GI50 [56] was 0.0409 µM and the TGI [56] was 0.17 µM. The GI50 [57] was 0.144 µM and the TGI [57] was 0.687 µM.
